Reference: patent US9974785B2, “Aromatic heterocyclic derivatives and pharmaceutical applications thereof” (SUNSHINE LAKE PHARMA CO., LTD., priority 2014, dated 2018)

What was measured:
[1] = molecular target: human 5-HT6 receptor (Homo sapiens (Human), UniProt P50406); assay: Radioligand binding assay, human 5-HT6 receptor expressed in CHO cell; conditions: 2 nM [3H]LSD
Method: Example A: The Binding Affinities of the Compounds of this Invention to Human 5-HT6 Receptor Expressed in CHO Cell were Evaluated by Radioligand Binding Assay as Follows
32 μg membrane proteins of CHO cell expressing human 5-HT6 receptor, 2 nM of radioactive marker [3H]LSD, a compound of the present invention having different test concentrations, 100 μM 5-HT (5-HT was used to eliminate nonspecific binding sites) and a buffer solution were mixed uniformly. Then the resulting mixture was incubated at 37° C. for 120 min, in which the buffer solution comprised 50 mM Tris-HCl (pH 7.4), 10 mM MgCl2, 0.5 mM EDTA, 10 μM pargyline and 20 mg/L protease inhibitor.
After incubation, the resulting mixture was filtered by a fiberglass filter (GF/B, Packard) in vacuo, and the filter membrane of the fiberglass filter was preimpregnated with 0.3% PEI before the filtering and washed with 50 mM of Tris-HCl for several times after the filtering. After the filter membrane was dried, and the radioactivity of filter membrane was determined by liquid scintillation counting by using a scintillometer (Topcount, Packard). The reference standard was 5-HT, and competitive inhibition curves were plotted based on several inhibition ratios and the corresponding compound concentrations. IC50 values were calculated by non-linear regression analysis using Hill equation curves, and the Ki values were calculated from IC50 by using the ChengPrusoff equation.

[2] = Stability in rat liver microsomes; format: in vitro ADME; conditions: rat liver microsome 0.5 mg/mL, 1 μM compound, 37° C.; for half-life at 1 μM: pH 7.4; for CLint scaled at 1 μM: pH 7.4, read-out: Intrinsic clearance
Method: (§1) Example C: Evaluation of the Stability of the Compounds of the Invention in Rat and Human Liver Microsomes
(§2) The compound of the invention and rat liver microsome or human liver microsome were placed in 0.1 M potassium phosphate buffer (containing 1.0 mM EDTA, pH=7.4) at 37° C., and the mixture was incubated at 37° C. The concentrations of the compound at different incubation time points were determined, and the half-life of the compound was calculated by curve plotted based on the relative contents of the compound and the corresponding incubation times by using GraphPad Prism 5.01. Then the intrinsic clearance was calculated.
(§3) The peak area ratio of sample to internal standard was analyzed by the LC/MS/MS system. The content of the compound at 0 min was 100%, and the relative contents of the compound at different time points were calculated. The half-life of the compound was calculated by curve plotted based on the relative contents of the compound and the corresponding incubation times, and the intrinsic clearance was calculated.

[3] = Stability in human liver microsomes; format: in vitro ADME
Method: as §1, §2, §3

Chain of human 5-HT6 receptor (P50406 whole entry): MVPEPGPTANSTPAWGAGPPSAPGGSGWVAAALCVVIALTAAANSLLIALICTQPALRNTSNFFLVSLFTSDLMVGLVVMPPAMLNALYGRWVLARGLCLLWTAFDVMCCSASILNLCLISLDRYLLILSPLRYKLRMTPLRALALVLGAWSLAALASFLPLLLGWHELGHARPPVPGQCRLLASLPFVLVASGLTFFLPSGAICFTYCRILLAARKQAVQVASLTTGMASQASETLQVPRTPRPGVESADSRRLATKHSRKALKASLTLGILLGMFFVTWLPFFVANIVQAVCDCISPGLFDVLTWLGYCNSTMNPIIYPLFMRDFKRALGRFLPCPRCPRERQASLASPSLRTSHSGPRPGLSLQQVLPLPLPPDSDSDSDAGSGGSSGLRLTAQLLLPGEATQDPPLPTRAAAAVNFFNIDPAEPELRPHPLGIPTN

| SMILES | Ki [1] [nM] | further results |
| --- | --- | --- |
| O=S(=O)(c1ccccc1F)n1cc(C(F)F)c2cc(N3CCNCC3)ccc21 [Example 12, 3-(difluoromethyl)-1-((2-fluorophenyl)sulfonyl)-5-(piperazin-1-yl)-1H-indole] | 30 | – |
| O=S(=O)(c1ccccc1Br)n1cc(C(F)F)c2c(N3CCNCC3)cc(Cl)cc21 [Example 26, 1-((2-bromophenyl)sulfonyl)-6-chloro-3-(difluoromethyl)-4-(piperazin-1-yl)-1H-indole] | 1.1 | – |
| COc1ccc(S(=O)(=O)n2cc(C(F)F)c3c(N4CCNCC4)cccc32)cc1 [Example 8, 3-(difluoromethyl)-1-((4-methoxyphenyl)sulfonyl)-4-(piperazin-1-yl)-1H-indole] | 12 | – |
| CN1CCN(c2cccc3c2c(C(F)F)cn3S(=O)(=O)c2cccc(F)c2)CC1 [Example 42, 3-(difluoromethyl)-1-((3-fluorophenyl)sulfonyl)-4-(4-methylpiperazin-1-yl)-1H-indole] | 0.7 | – |
| O=S(=O)(c1ccccc1)n1cc(C(F)F)c2c(NC3CCNCC3)cccc21 [Example 55, 3-(difluoromethyl)-1-(phenylsulfonyl)-N-(piperidin-4-yl)-1H-indol-4-amine] | 65 | – |
| O=S(=O)(c1cccc(Br)c1)n1cc(C(F)F)c2c(N3CCNCC3)cc(Cl)cc21 [Example 29, 1-((3-bromophenyl)sulfonyl)-6-chloro-3-(difluoromethyl)-4-(piperazin-1-yl)-1H-indole] | 1.3 | – |
| O=S(=O)(c1ccccc1Br)n1cc(C(F)F)c2c(N3CCNCC3)cccc21 [Example 4, 1-((2-bromophenyl)sulfonyl)-3-(difluoromethyl)-4-(piperazin-1-yl)-1H-indole] | 1.1 | half-life at 1 μM [2]: 30.4 min; CLint scaled at 1 μM [2]: 4.91 L/h/kg; half-life at 1 μM ([3]; liver microsomes, human liver microsome 0.5 mg/mL, 1 μM compound, 37° C., pH 7.4): 157 min; CLint scaled at 1 μM ([3]; liver microsomes, human liver microsome 0.5 mg/mL, 1 μM compound, 37° C., pH 7.4, read-out: Intrinsic clearance): 0.665 L/h/kg |
| O=S(=O)(c1cccc(F)c1)n1cc(C(F)F)c2c(N3CCNCC3)cc(Br)cc21 [Example 35, 6-bromo-3-(difluoromethyl)-1-((3-fluorophenyl)sulfonyl)-4-(piperazin-1-yl)-1H-indole] | 1.9 | – |
| O=S(=O)(c1cccc(F)c1)n1cc(C(F)F)c2c(N3CCNCC3)cc(Cl)cc21 [Example 27, 6-chloro-3-(difluoromethyl)-1-((3-fluorophenyl)sulfonyl)-4-(piperazin-1-yl)-1H-indole] | 1.9 | – |
| O=S(=O)(c1ccccc1C(F)(F)F)n1cc(C(F)F)c2c(N3CCNCC3)cc(Cl)cc21 [Example 23, 6-chloro-3-(difluoromethyl)-4-(piperazin-1-yl)-1-((2-(trifluoromethyl)phenyl)sulfonyl)-1H-indole] | 9.3 | – |
| O=S(=O)(c1ccccc1Br)n1cc(C(F)F)c2cc(N3CCNCC3)ccc21 [Example 14, 1-((2-bromophenyl)sulfonyl)-3-(difluoromethyl)-5-(piperazin-1-yl)-1H-indole] | 20 | – |
| O=S(=O)(c1cccc(Cl)c1)n1cc(C(F)F)c2c(N3CCNCC3)cccc21 [Example 6, 1-((3-chlorophenyl)sulfonyl)-3-(difluoromethyl)-4-(piperazin-1-yl)-1H-indole] | 0.68 | half-life at 1 μM [2]: 35.5 min; CLint scaled at 1 μM [2]: 4.2 L/h/kg; degradation in human liver microsomes in vitro ([3]; in 60 minutes): almost had no degradation |
| O=S(=O)(c1cccc(Br)c1)n1cc(C(F)F)c2c(NC3CCNCC3)cccc21 [Example 54, 1-((3-bromophenyl)sulfonyl)-3-(difluoromethyl)-N-(piperidin-4-yl)-1H-indol 4-amine] | 11 | – |
| O=S(=O)(c1ccccc1)n1cc(C(F)F)c2c(N3CCNCC3)cccc21 [Example 1, 3-(difluoromethyl)-1-(phenylsulfonyl)-4-(piperazin-1-yl)-1H-indole] | 1.6 | – |
| O=S(=O)(c1ccccc1F)n1cc(C(F)F)c2c(N3CCNCC3)cc(Cl)cc21 [Example 24, 6-chloro-3-(difluoromethyl)-1-((2-fluorophenyl)sulfonyl)-4-(piperazin-1-yl)-1H-indole] | 1.6 | – |
| O=S(=O)(c1cccc(Cl)c1)n1cc(C(F)F)c2c(N3CCNCC3)cc(Br)cc21 [Example 36, 6-bromo-1-((3-chlorophenyl)sulfonyl)-3-(difluoromethyl)-4-(piperazin-1-yl)-1H-indole] | 1.7 | – |
| O=S(=O)(c1cccc(Br)c1)n1cc(C(F)F)c2c(N3CCNCC3)cc(Br)cc21 [Example 37, 6-bromo-1-((3-bromophenyl)sulfonyl)-3-(difluoromethyl)-4-(piperazin-1-yl)-1H-indole] | 1.5 | – |
| O=S(=O)(c1cccc(Cl)c1)n1cc(C(F)F)c2c(N3CCNCC3)cc(Cl)cc21 [Example 28, 6-chloro-1-((3-chlorophenyl)sulfonyl)-3-(difluoromethyl)-4-(piperazin-1-yl)-1H-indole] | 1.4 | – |
| CCN1CCN(c2cccc3c2c(C(F)F)cn3S(=O)(=O)c2cccc(F)c2)CC1 [Example 43, 3-(difluoromethyl)-4-(4-ethylpiperazin-1-yl)-1-((3-fluorophenyl)sulfonyl)-1H-indole] | 2.3 | – |
| O=S(=O)(c1cccc(F)c1)n1cc(C(F)F)c2c(NC3CCNCC3)cccc21 [Example 52, 3-(difluoromethyl)-1-((3-fluorophenyl)sulfonyl)-N-(piperidin-4-yl)-1H-indol-4-amine] | 18 | – |
| O=S(=O)(c1ccc2ccccc2c1)n1cc(C(F)F)c2c(N3CCNCC3)cccc21 [Example 10, 3-(difluoromethyl)-1-(naphthalen-2-ylsulfonyl)-4-(piperazin-1-yl)-1H-indole] | 0.5 | – |
| CC(C)N1CCN(c2cccc3c2c(C(F)F)cn3S(=O)(=O)c2cccc(F)c2)CC1 [Example 44, 3-(difluoromethyl)-1-((3-fluorophenyl)sulfonyl)-4-(4-isopropylpiperazin-1-yl)-1H-indole] | 27 | – |
| O=S(=O)(c1ccccc1Cl)n1cc(C(F)F)c2c(N3CCNCC3)cc(Cl)cc21 [Example 25, 6-chloro-1-((2-chlorophenyl)sulfonyl)-3-(difluoromethyl)-4-(piperazin-1-yl)-1H-indole] | 0.68 | – |

More lines, main results first:

| Ki [1] [nM] | SMILES | further results |
| --- | --- | --- |
| 15 | O=S(=O)(c1cccc(Cl)c1)n1cc(C(F)F)c2cc(N3CCNCC3)ccc21 [Example 18, 1-((3-chlorophenyl)sulfonyl)-3-(difluoromethyl)-5-(piperazin-1-yl)-1H-indole] | – |
| 17 | Cc1ccc(S(=O)(=O)n2cc(C(F)F)c3cc(N4CCNCC4)ccc32)cc1 [Example 15, 3-(difluoromethyl)-5-(piperazin-1-yl)-1-tosyl-1H-indole] | – |
| 44 | O=S(=O)(c1ccc(Cl)cc1)n1cc(C(F)F)c2cc(N3CCNCC3)ccc21 [Example 20, 1-((4-chlorophenyl)sulfonyl)-3-(difluoromethyl)-5-(piperazin-1-yl)-1H-indole] | – |
| 6.4 | Cc1ccc(S(=O)(=O)n2cc(C(F)F)c3c(N4CCNCC4)cccc32)cc1 [Example 7, 3-(difluoromethyl)-4-(piperazin-1-yl)-1-tosyl-1H-indole] | – |
| 44 | O=S(=O)(c1ccc(Br)cc1)n1cc(C(F)F)c2cc(N3CCNCC3)ccc21 [Example 21, 1-((4-bromophenyl)sulfonyl)-3-(difluoromethyl)-5-(piperazin-1-yl)-1H-indole] | – |
| 11 | O=S(=O)(c1ccccc1)n1cc(C(F)F)c2cc(N3CCNCC3)ccc21 [Example 11, 3-(difluoromethyl)-1-(phenylsulfonyl)-5-(piperazin-1-yl)-1H-indole] | – |
| 13 | O=S(=O)(c1ccccc1Cl)n1cc(C(F)F)c2cc(N3CCNCC3)ccc21 [Example 13, 1-((2-chlorophenyl)sulfonyl)-3-(difluoromethyl)-5-(piperazin-1-yl)-1H-indole] | – |
| 13 | O=S(=O)(c1cccc(Br)c1)n1cc(C(F)F)c2cc(N3CCNCC3)ccc21 [Example 19, 1-((3-bromophenyl)sulfonyl)-3-(difluoromethyl)-5-(piperazin-1-yl)-1H-indole] | – |
| 67 | COc1ccc(S(=O)(=O)n2cc(C(F)F)c3cc(N4CCNCC4)ccc32)cc1 [Example 16, 3-(difluoromethyl)-1-((4-methoxyphenyl)sulfonyl)-5-(piperazin-1-yl)-1H-indole] | – |
| 13 | O=S(=O)(c1cccc(F)c1)n1cc(C(F)F)c2cc(N3CCNCC3)ccc21 [Example 17, 3-(difluoromethyl)-1-((3-fluorophenyl)sulfonyl)-5-(piperazin-1-yl)-1H-indole] | – |
